The numbers were not newly measured in patent US20030013767A1, “Method of treating weight loss using creatine” (priority 2001, published 2003), which cites them from elsewhere.

One data set has as its system gyrate atrophy. The following applies: gyrate atrophy patients.
The test system of data set [1] is severe deficiency of creatine in brain. The following applies: oral, ten to twelve months.
Data set [2] relates to animal models of neurologic diseases, such as amyotrophic lateral sclerosis.

In the case of `CN(CC(=O)O)C(=N)N` [creatine], in the data set on gyrate atrophy, the “effect on periocular muscles” value was “slight strengthening of the periocular muscles” and the “effect on the atrophy” value is listed as “no effect on the atrophy”. The toxicity result in data set [1] (4 grams/day (305-370 mg/kg/day) to 8 grams/day (600-740 mg/kg/day)) was “no report of toxicity”. Also, the treatment outcome in data set [1] (4 grams/day to 8 grams/day) is “some success”. The therapeutic outcome in data set [2] is “without success”.
